US12421211B2, “Heterocyclic compounds” (Hoffmann-La Roche Inc., priority 2021, dated 2025)
Where a name gives a salt, the structure may show the parent alone.

system: Acinetobacter baumannii ATCC17961; assay: Antimicrobial susceptibility testing: 90% growth inhibitory concentration (IC90) determination; type: cell-based; conditions: Acinetobacter baumannii, ATCC17961, 16 h, 90% growth inhibitory concentration, Acinetobacter baumannii ATCC17961, Iso-Sensitest broth, OD 600 nm over 16 h; read-out: ATCC 17961 IC90
Protocol: Assay Procedures Antimicrobial Susceptibility Testing: 90% Growth Inhibitory Concentration (IC90) Determination
The in vitro antimicrobial activity of the compounds was determined according to the following procedure:
The assay used a 10-points Iso-Sensitest broth medium to measure quantitatively the in vitro activity of the compounds against Acinetobacter baumannii ATCC17961.
Stock compounds in DMSO were serially twofold diluted (e.g. range from 50 to 0.097 μM final concentration) in 384 wells microtiter plates and inoculated with 49 μl the bacterial suspension in Iso-Sensitest medium to have a final cell concentration of ˜5×10^(5) CFU/ml in a final volume/well of 50 ul/well. Microtiter plates were incubated at 35±2° C.
Bacterial cell growth was determined with the measurement of optical density at λ=600 nm each 20 minutes over a time course of 16h. Growth inhibition was calculated during the logarithmic growth of the bacterial cells with determination of the concentration inhibiting 50% (IC50) and 90% (IC90) of the growth.
Table 1 provides the 90% growth inhibitory concentrations (IC90) in micromoles per liter of the compounds of present invention obtained against the strain Acinetobacter baumannii ATCC17961.

| Compound | IC90 |
| --- | --- |
| COCCn1cc(-c2ccc(-c3cnc(C(=O)Nc4ccc(C(=O)N5CCN(C(=O)C[N+]6(C)CCC(O)(CN)C6)CC5)c(Cl)c4)n3C)c(F)c2F)c(C)n1 (centres unmarked) [Example C6, N-[4-[4-[2-[3-(aminomethyl)-3-hydroxy-1-methyl-pyrrolidin-1-ium-1-yl]acetyl]piperazine-1-carbonyl]-3-chloro-phenyl]-5-[2,3-difluoro-4-[1-(2-methoxyethyl)-3-methyl-pyrazol-4-yl]phenyl]-1-methyl-imidazole-2-carboxamide; formic acid; formate] | 140 nM |
| COCCn1ncc(-c2ccc(-c3cnc(C(=O)Nc4ccc(C(=O)N5CCN(C(=O)C6(OC)CCNCC6)CC5)c(Cl)c4)n3C)c(F)c2F)c1C [Example D44, N-[3-chloro-4-[4-(4-methoxypiperidine-4-carbonyl)piperazine-1-carbonyl]phenyl]-5-[2,3-difluoro-4-[1-(2-methoxyethyl)-5-methyl-pyrazol-4-yl]phenyl]-1-methyl-imidazole-2-carboxamide] | 160 nM |
| COCCn1ncc(-c2ccc(-c3cnc(C(=O)Nc4ccc(C(=O)N5CCN(C(=O)[C@@H]6C[C@@H](O)CN6)CC5)c(C)c4)n3C)c(F)c2F)c1C [Example E8, 5-[2,3-difluoro-4-[1-(2-methoxyethyl)-5-methyl-pyrazol-4-yl]phenyl]-N-[4-[4-[(2S,4R)-4-hydroxypyrrolidine-2-carbonyl]piperazine-1-carbonyl]-3-methyl-phenyl]-1-methyl-imidazole-2-carboxamide] | 200 nM |
| COCCn1nc(C)c(-c2ccc(-c3cnc(C(=O)Nc4ccc(C(=O)N[C@H]5[C@@H]6CN(C(=O)[C@@H]7C[C@@H](O)C[N+]7(C)C)C[C@@H]65)c(Cl)c4)n3C)c(F)c2F)c1C [Example D38, N-[3-chloro-4-[[(1R,5S)-3-[(2S,4R)-4-hydroxy-1,1-dimethyl-pyrrolidin-1-ium-2-carbonyl]-3-azabicyclo[3.10]hexan-6-yl]carbamoyl]phenyl]-5-[2,3-difluoro-4-[1-(2-methoxyethyl)-3,5-dimethyl-pyrazol-4-yl]phenyl]-1-methyl-imidazole-2-carboxamide; formate] | 150 nM |
| Cc1nn(CC(=O)Nc2cccc(F)c2)cc1-c1ccc(-c2cnc(C(=O)Nc3ccc(C(=O)N4CCN(C(=O)C5CC[N+](C)(C)CC5)CC4)c(Cl)c3)n2C)c(F)c1F [Example G13, N-[3-chloro-4-[4-(1,1-dimethylpiperidin-1-ium-4-carbonyl)piperazine-1-carbonyl]phenyl]-5-[2,3-difluoro-4-[1-[2-(3-fluoroanilino)-2-oxo-ethyl]-3-methyl-pyrazol-4-yl]phenyl]-1-methyl-imidazole-2-carboxamide; chloride] | 130 nM |
| Cc1c(-c2ccc(-c3cnc(C(=O)Nc4ccc(C(=O)N5CCN(C(=O)C6CC[N+](C)(C)CC6)CC5)c(Cl)c4)n3C)c(F)c2F)cnn1CC(=O)Nc1cccnn1 [Example G25, N-[3-chloro-4-[4-(1,1-dimethylpiperidin-1-ium-4-carbonyl)piperazine-1-carbonyl]phenyl]-5-[2,3-difluoro-4-[5-methyl-1-[2-oxo-2-(pyridazin-3-ylamino)ethyl]pyrazol-4-yl]phenyl]-1-methyl-imidazole-2-carboxamide; formate] | 1000 nM |
| Cc1nn(-c2ccccn2)cc1-c1ccc(-c2cnc(C(=O)Nc3ccc(C(=O)N4CCN(C(=O)C5CC[N+](C)(C)CC5)CC4)c(Cl)c3)n2C)c(F)c1F [Example F50, N-[3-chloro-4-[4-(1,1-dimethylpiperidin-1-ium-4-carbonyl)piperazine-1-carbonyl]phenyl]-5-[2,3-difluoro-4-[3-methyl-1-(2-pyridyl)pyrazol-4-yl]phenyl]-1-methyl-imidazole-2-carboxamide; formate] | 1100 nM |
| COCCn1ncc(-c2ccc(-c3cnc(C(=O)Nc4ccc(C(=O)N[C@H]5[C@@H]6CN(C(=O)N[C@@H]7CNC[C@H]7O)C[C@@H]65)c(Cl)c4)n3C)c(F)c2F)c1C [Example E22, (1S,5R)-6-[[2-chloro-4-[[5-[2,3-difluoro-4-[1-(2-methoxyethyl)-5-methyl-pyrazol-4-yl]phenyl]-1-methyl-imidazole-2-carbonyl]amino]benzoyl]amino]-N-[(3R,4R)-4-hydroxypyrrolidin-3-yl]-3-azabicyclo[3.1.0] hexane-3-carboxamide] | 59 nM |
| Cn1nccc1-c1n[nH]cc1-c1ccc(-c2cnc(C(=O)Nc3ccc(C(=O)N4CCN(C(=O)C5CC[N+](C)(C)CC5)CC4)c(Cl)c3)n2C)c(F)c1F [Example F44, N-[3-chloro-4-[4-(1,1-dimethylpiperidin-1-ium-4-carbonyl)piperazine-1-carbonyl]phenyl]-5-[2,3-difluoro-4-[3-(2-methylpyrazol-3-yl)-1H-pyrazol-4-yl]phenyl]-1-methyl-imidazole-2-carboxamide; formate] | 730 nM |
| Cc1nn(CCn2ccccc2=O)cc1-c1ccc(-c2cnc(C(=O)Nc3ccc(C(=O)N4CCN(C(=O)C5CC[N+](C)(C)CC5)CC4)c(Cl)c3)n2C)c(F)c1F [Example F46, N-[3-chloro-4-[4-(1,1-dimethylpiperidin-1-ium-4-carbonyl)piperazine-1-carbonyl]phenyl]-5-[2,3-difluoro-4-[3-methyl-1-[2-(2-oxo-1-pyridyl)ethyl]pyrazol-4-yl]phenyl]-1-methyl-imidazole-2-carboxamide; formate] | 1100 nM |
| COCCn1ncc(-c2ccc(-c3cnc(C(=O)Nc4ccc(C(=O)N[C@H]5[C@@H]6CN(C(=O)[C@@H]7C[C@@H](O)C[N+]7(C)C)C[C@@H]65)c(Cl)c4)n3C)c(F)c2F)c1C [Example D40, N-[3-chloro-4-[[(1S,5R)-3-[(2S,4R)-4-hydroxy-1,1-dimethyl-pyrrolidin-1-ium-2-carbonyl]-3-azabicyclo[3.10]hexan-6-yl]carbamoyl]phenyl]-5-[2,3-difluoro-4-[1-(2-methoxyethyl)-3,5-dimethyl-pyrazol-4-yl]phenyl]-1-methyl-imidazole-2-carboxamide; formate] | 77 nM |
| COCCn1ncc(-c2ccc(-c3cnc(C(=O)Nc4ccc(C(=O)N5CCC(C(=O)N6CC[N+](C)(CC(=O)O)CC6)CC5)c(Cl)c4)n3C)c(F)c2F)c1C [Example B13, 2-[4-[1-[2-chloro-4-[[5-[2,3-difluoro-4-[1-(2-methoxyethyl)-5-methyl-pyrazol-4-yl]phenyl]-1-methyl-imidazole-2-carbonyl]amino]benzoyl]piperidine-4-carbonyl]-1-methyl-piperazin-1-ium-l-yl]acetic acid; 2,2,2-trifluoroacetate] | 810 nM |
| COCCn1ncc(-c2ccc(-c3cnc(C(=O)Nc4ccc(C(=O)N5CCN(C(=O)CCC[N+](C)(CC(=O)O)CC6CNC6)CC5)c(Cl)c4)n3C)c(F)c2F)c1C (centres unmarked) [Example P1, azetidin-3-ylmethyl-(carboxymethyl)-[4-[4-[2-chloro-4-[[5-[2,3-difluoro-4-[1-(2-methoxyethyl)-5-methyl-pyrazol-4-yl]phenyl]-1-methyl-imidazole-2-carbonyl]amino]benzoyl]piperazin-1-yl]-4-oxo-butyl]-methyl-ammonium; formate] | 191 nM |
| COCCn1ncc(-c2ccc(-c3cnc(C(=O)Nc4ccc(C(=O)N5CCN(C(=O)C6(N)CC[N+](C)(C)CC6)CC5)c(Cl)c4)n3C)c(F)c2F)c1C [Example D20, N-[4-[4-(4-amino-1,1-dimethyl-piperidin-1-ium-4-carbonyl)piperazine-1-carbonyl]-3-chloro-phenyl]-5-[2,3-difluoro-4-[1-(2-methoxyethyl)-5-methyl-pyrazol-4-yl]phenyl]-1-methyl-imidazole-2-carboxamide; formate] | 64 nM |
| COc1ccc(NC(=O)Cn2cc(-c3ccc(-c4cnc(C(=O)Nc5ccc(C(=O)N6CCN(C(=O)C7CC[N+](C)(C)CC7)CC6)c(Cl)c5)n4C)c(F)c3F)c(C)n2)nc1 [Example G28, N-[3-chloro-4-[4-(1,1-dimethylpiperidin-1-ium-4-carbonyl)piperazine-1-carbonyl]phenyl]-5-[2,3-difluoro-4-[1-[2-[(5-methoxy-2-pyridyl)amino]-2-oxo-ethyl]-3-methyl-pyrazol-4-yl]phenyl]-1-methyl-imidazole-2-carboxamide; formate] | 88 nM |
| COCCn1cc(-c2ccc(-c3cnc(C(=O)Nc4ccc(C(=O)N5CCN(C(=O)C6CCNCC6)CC5)c(Cl)c4)n3C)c(F)c2F)cn1 [Example E21, N-[3-chloro-4-[4-(piperidine-4-carbonyl)piperazine-1-carbonyl]phenyl]-5-[2,3-difluoro-4-[1-(2-methoxyethyl)pyrazol-4-yl]phenyl]-1-methyl-imidazole-2-carboxamide] | 290 nM |

same assay, conditions: Acinetobacter baumannii, ATCC17961, 16 h, read-out: ATCC 17961 IC90

| Compound | IC90 |
| --- | --- |
| COCCn1ncc(-c2ccc(-c3cnc(C(=O)Nc4ccc(C(=O)N5CCN(C(=O)C6CC[N+](C)(CCO)CC6)CC5)c(Cl)c4)n3C)c(F)c2F)c1C (centres unmarked) [Example B12, N-[3-chloro-4-[4-[1-(2-hydroxyethyl)-1-methyl-piperidin-1-ium-4-carbonyl]piperazine-1-carbonyl]phenyl]-5-[2,3-difluoro-4-[1-(2-methoxyethyl)-5-methyl-pyrazol-4-yl]phenyl]-1-methyl-imidazole-2-carboxamide; formate] | 110 nM |
